{
  "source": "patent US11046647B2",
  "about": "“Activators of the unfolded protein response” (The Board of Trustees of the University of Illinois, priority 2018, dated 2021)",
  "key": {"[1]": {"tested_on": "TYS-Luc (T47DERαY537S-Luc human breast cancer cells) tumors", "assay": "Orthotopic TYS-Luc mouse xenograft, bioluminescent imaging (BLI)", "type": "in vivo", "method": "In a treatment and vehicle-controlled mouse tumor study, human breast cancer cells were engineered to contain both the lethal ERαY537S mutation found in metastatic breast cancer, and the gene for firefly luciferase—when the appropriate chemical is added, the firefly luciferase breaks down the chemical and light is produced. Using a sensitive detector called an imaging system, this allows us to image the tumors inside live mice. This is called bioluminescent imaging, or BLI. Large tumors were allowed to form. Then (−)-105 was injected daily under the skin for three weeks. Using the imaging system, the effect of (−)-105 on the tumors was monitored. At the same time the effect of the vehicle in which (−)-105 was dissolved on tumors was also monitored.\nA study was performed to determine what happens after stopping treatment with (−)-105 (Table 2). The study was designed to show whether the micro-tumors would remain dormant, or whether they would regrow. At the end of the three-week treatment, there is residual material that gives off a tiny amount of light which are termed “micro-tumors”. Based on sensitivity of the imaging system, it is believed these micro-tumors contain anywhere from 0˜1,000 cancer cells; the micro-tumors will not be visible to the naked eye. Seeing them requires the powerful imaging system, or a microscope. To test whether these cells are either dead, or no longer dividing and are dormant, the cells two and 4 weeks after they stopped receiving any treatment were imaged. This study tested whether growing cancer cells have been eradicated; this study continues.\nIn a 3-week study, large breast tumors were present at start of treatment and regressed as shown in the image of FIG. 17. The study was performed using Orthotopic TYS-Luc (injected cells: T47DERαY537-Luc human breast cancer cells), e.g., the most lethal ERα mutation in human in metastatic breast cancer. Tumors were grown in NSG mice. Further details are provided in the Examples.\nExperimental Details of the Xenografts: TYS-Luc cells (5,000,000 cells in Matrigel) were injected into the upper mammary fat pad of ovariectomized female NSG (SCID) mice (Jackson labs). After 10 weeks, on day 0, large tumors (size range: 100-600 mm^3) were present. Mice were treated with the vehicle used to dissolve (−)-105, or (−)-105 at 40 mg/kd daily by subcutaneous injection. For bioluminescent imaging (BLI) of the tumors, the mice were anesthetized with isoflurane and Lucerfin, the luciferase substrate, was injected into the mice. Flux, the total member of light photons hitting the detector in one second was measured using an IVIS ([…]). Shown is the flux (in millions of units per second) for the entire area containing each tumor, or an equivalent area when the tumor is tiny or undetectable and the percent change in tumor size at each time a measurement was taken (day 0, day 3, week 1, week 2, week 3). Then treatment was stopped, and another measurement was taken two weeks letter. Note that tumors were also measured with calipers. […] After three days all the (−)-105 tumors has declined to undetectable using calipers."}, "[2]": {"tested_on": "MCF-7Y537S (MCF-7 ERαY537S-luciferase) cells", "assay": "Long-term cell culture experiment, MCF-7 ERαY537S-luciferase", "type": "cell-based, human", "conditions": "conditions as FIG. 15 (1 μM)"}, "[3]": {"tested_on": "parental T47D cells", "assay": "MTS growth assay, parental T47D cells", "type": "cell-based, human", "conditions": "100 nM and 1 μM; 4 days", "method": "(§1) ERα containing T47D human breast cancer cells able to survive in 1 μM BHPI were selected by clonal outgrowth. The effect of 100 nM and 1 μM BHPI and (−)-105 on growth of the (BHPI-sensitive) parental T47D cells and partially BHPI-resistant T47D clones 1,3,8, and 11 was evaluated. 4,000 cells/well were plated. Cell number was determined by MTS assay from a standard curve of absorbance versus cell number. […] Thus, in 4 days (−)-105 killed some, but not all, of the resistant cells."}, "[4]": {"tested_on": "partially BHPI-resistant T47D clones 1,3,8, and 11", "assay": "MTS growth assay, partially BHPI-resistant T47D clones", "type": "cell-based, human", "conditions": "100 nM and 1 μM; 4 days", "method": "as §1"}, "[5]": {"conditions": "2 weeks after treatment stopped, per mouse"}, "[6]": {"conditions": "4 weeks after treatment stopped, per mouse"}},
  "note": "Several values for one entry are separate records, joined by “and”; a condition that tells them apart may be missing. Equal values may be shown once.",
  "data": [
    {"smiles": "O=C1Nc2c(C(F)(F)F)cccc2C1(c1ccc(O)cc1)c1ccc(OC(F)(F)F)cc1", "note": "(single isomer, unassigned; (-)) [(−)-105, 3-(4-hydroxyphenyl)-3-(4-(trifluoromethoxy)phenyl)-7-(trifluoromethyl)indolin-2-one]", "values": [
      {"measurement": "tumor regrowth after sub-therapeutic dose", "setting": "[1]; 10 mg/kg oral", "result": "tumors did regrow"},
      {"measurement": "Week 2 No Drug % Change in Tumor Flux", "setting": "[1]; [5]", "result": "−99.95% and −99.84% and −100% (2×) and −99.991%"},
      {"measurement": "Week 2 No Drug Tumor Flux", "setting": "[1]; [5]", "result": "0.13 millions of photons/sec and 0.11 millions of photons/sec and 0 millions of photons/sec (2×) and 0.17 millions of photons/sec"},
      {"measurement": "health / toxicity of treated mice", "setting": "[1]; 3-week treatment", "result": "No toxicity"},
      {"measurement": "micro-tumor regrowth after stopping treatment", "setting": "[1]; 4 weeks after stopping treatment", "result": "NO “MICRO-TUMOR” REGROWTH"},
      {"measurement": "Week 4 No Drug % Change in Tumor Flux", "setting": "[1]; [6]", "result": "−99.98% and −99.88% and −100% and −99.997% and −99.998%"},
      {"measurement": "Week 4 No Drug Tumor Flux", "setting": "[1]; [6]", "result": "0.038 millions of photons/sec (2×) and 0.084 millions of photons/sec and 0 millions of photons/sec and 0.048 millions of photons/sec"},
      {"measurement": "Day 3 Flux", "setting": "[1]; Day 3, per mouse, 40 mg/kg daily, 40 mg/kg", "result": "0.22 millions of photons/s and 0.043 millions of photons/s and 0.40 millions of photons/s and 0.29 millions of photons/s and 0.17 millions of photons/s"},
      {"measurement": "Day 3 % Change in Tumor Flux", "setting": "[1]; Day 3 vs Day 0, per mouse", "result": "−99.99% (2×) and −99.98% (2×) and −99.45%"},
      {"measurement": "Day 7 Flux", "setting": "[1]; Day 7, per mouse", "result": "0.082 millions of photons/s and 0.041 millions of photons/s and 0.17 millions of photons/s and 0.059 millions of photons/s and 0.18 millions of photons/s"},
      {"measurement": "Day 7 % Change in Tumor Flux", "setting": "[1]; Day 7 vs Day 0, per mouse", "result": "−99.996% (2×) and −99.99% (2×) and −99.77%"},
      {"measurement": "Day 14 Flux", "setting": "[1]; Day 14, per mouse", "result": "0.246 millions of photons/s and 0.039 millions of photons/s and 0.245 millions of photons/s and 0 millions of photons/s and 0.071 millions of photons/s"},
      {"measurement": "Day 14 % Change in Tumor Flux", "setting": "[1]; Day 14 vs Day 0, per mouse", "result": "−99.99% (2×) and −99.66% and −100% and −99.996%"},
      {"measurement": "Day 21 Flux", "setting": "[1]; Day 21, per mouse", "result": "0.051 millions of photons/s and 0.16 millions of photons/s and 0.14 millions of photons/s and 0 millions of photons/s and 0.046 millions of photons/s"},
      {"measurement": "Day 21 % Change in Tumor Flux", "setting": "[1]; Day 21 vs Day 0, per mouse", "result": "−99.998% and −99.94% and −99.81% and −100% and −99.997%"},
      {"measurement": "tumor regrowth upon treatment cessation", "setting": "[1]; after 21 daily doses 40 mg/kg i.p.", "result": "tumors did not regrow"},
      {"measurement": "tumor regression by BLI, 4 of the 5 tumors", "setting": "[1]; after 3 days of treatment", "result": "more than 99.9%"},
      {"measurement": "tumor regression by BLI, all five tumors", "setting": "[1]; after 3 days of treatment", "result": "more than 99%"},
      {"measurement": "tumor size using calipers, all 5 mice", "setting": "[1]; after 3 days of treatment", "result": "undetectable"},
      {"measurement": "tumor regression by BLI, 3 of the remaining 4 mice", "setting": "[1]; after three weeks", "result": "more than 99.9%"},
      {"measurement": "effect on Y537S tumors (TYS cell line)", "setting": "[1]; dose-dependent, i.p. and oral administration", "result": "eradicates Y537S tumors"},
      {"measurement": "tolerability", "setting": "[1]; i.p. and oral administration", "result": "tolerated"},
      {"measurement": "Start Recovery Flux", "setting": "[1]; start of no-drug recovery after 3 weeks treatment, per mouse", "result": "0.16 millions of photons/sec and 0.14 millions of photons/sec and 0 millions of photons/sec and 0.046 millions of photons/sec and 0.051 millions of photons/sec"},
      {"measurement": "Start No Drug: % change in Tumor Flux", "setting": "[1]; start of no-drug recovery, per mouse", "result": "−99.94% and −99.81% and −100% and −99.997%"},
      {"measurement": "microtumor regrowth after stopping treatment", "setting": "[1]; two weeks after treatment was stopped", "result": "had not started growing again"},
      {"measurement": "tumor size using calipers, all 5 tumors", "setting": "[1]; within seven days", "result": "undetectable size"},
      {"measurement": "eradication of cells in long-term experiment", "setting": "[2]", "result": "eradicates"},
      {"measurement": "effect on growth / cell number", "setting": "[3]", "result": "killed all the T47D cells"},
      {"measurement": "effect on growth / cell number", "setting": "[4]", "result": "completely blocked the growth of the resistant clones"}
    ]}
  ]
}
